Reference: PubChem BioAssay (NCI)
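These data come from cells grown in 96-well plates and exposed to compound for 48 hours at five concentrations. The concentration for 50% growth inhibition is given as GI50. TGI is the concentration that stops growth completely.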

Experiments:
Experiment in all cases: NCI tumour cell line growth inhibition, 48 h
SN12C renal = tested on: SN12C renal
DU-145 prostate = tested on: DU-145 prostate
EKVX NSCLC = tested on: EKVX NSCLC
HOP-92 NSCLC = tested on: HOP-92 NSCLC
CCRF-CEM leukemia = tested on: CCRF-CEM leukemia
M14 melanoma = tested on: M14 melanoma
OVCAR-5 ovarian = tested on: OVCAR-5 ovarian
SNB-75 CNS = tested on: SNB-75 CNS
NCI-H522 lung = tested on: NCI-H522 lung
UACC-62 melanoma = tested on: UACC-62 melanoma
TK-10 renal = tested on: TK-10 renal
RXF 393 renal = tested on: RXF 393 renal
MCF7 breast = tested on: MCF7 breast
SK-MEL-28 melanoma = tested on: SK-MEL-28 melanoma
COLO 205 colon = tested on: COLO 205 colon
U251 CNS = tested on: U251 CNS
SK-MEL-5 melanoma = tested on: SK-MEL-5 melanoma
HCT-15 colon = tested on: HCT-15 colon
MALME-3M melanoma = tested on: MALME-3M melanoma
K-562 leukemia = tested on: K-562 leukemia
KM12 colon = tested on: KM12 colon
BT-549 breast = tested on: BT-549 breast
NCI-H460 lung = tested on: NCI-H460 lung
SF-295 CNS = tested on: SF-295 CNS
SK-MEL-2 melanoma = tested on: SK-MEL-2 melanoma
CAKI-1 renal = tested on: CAKI-1 renal
786-0 renal = tested on: 786-0 renal
OVCAR-3 ovarian = tested on: OVCAR-3 ovarian
T-47D breast = tested on: T-47D breast
IGROV1 ovarian = tested on: IGROV1 ovarian
SK-OV-3 ovarian = tested on: SK-OV-3 ovarian
NCI-H226 lung = tested on: NCI-H226 lung
HS 578T breast = tested on: HS 578T breast
OVCAR-8 ovarian = tested on: OVCAR-8 ovarian
HCC-2998 colon = tested on: HCC-2998 colon
SF-539 CNS = tested on: SF-539 CNS
SW-620 colon = tested on: SW-620 colon
ACHN renal = tested on: ACHN renal
SNB-19 CNS = tested on: SNB-19 CNS
NCI/ADR-RES ovarian = tested on: NCI/ADR-RES ovarian
HOP-62 NSCLC = tested on: HOP-62 NSCLC
HT29 colon = tested on: HT29 colon
LOX IMVI melanoma = tested on: LOX IMVI melanoma
OVCAR-4 ovarian = tested on: OVCAR-4 ovarian
NCI-H23 lung = tested on: NCI-H23 lung
MDA-MB-435 = tested on: MDA-MB-435
A549 NSCLC = tested on: A549 NSCLC
MDA-MB-468 breast = tested on: MDA-MB-468 breast
MOLT-4 leukemia = tested on: MOLT-4 leukemia
HL-60(TB) leukemia = tested on: HL-60(TB) leukemia
HCT-116 colon = tested on: HCT-116 colon
A498 renal = tested on: A498 renal
PC-3 prostate = tested on: PC-3 prostate
UACC-257 melanoma = tested on: UACC-257 melanoma
SF-268 CNS = tested on: SF-268 CNS
RPMI-8226 leukemia = tested on: RPMI-8226 leukemia

Work on Cc1cc(C)cc(Oc2cccc(-c3c(C)nnn3C3CCN(CCN(C)C)CC3)n2)c1 yielded a GI50 (SN12C renal) of 4.27 µM, a TGI (SN12C renal) of 18.6 µM and a GI50 (DU-145 prostate) of 12.3 µM. For the same compound, the TGI (DU-145 prostate) was 34 µM, the GI50 (EKVX NSCLC) was 4.8 µM and the TGI (EKVX NSCLC) was 21.1 µM. It also gave a GI50 (HOP-92 NSCLC) of 0.455 µM, a TGI (HOP-92 NSCLC) of 15.4 µM and a GI50 (CCRF-CEM leukemia) of 0.951 µM. It also gave a TGI (CCRF-CEM leukemia) of 5.13 µM, a GI50 (M14 melanoma) of 1.08 µM and a TGI (M14 melanoma) of 11.5 µM. It also gave a GI50 (OVCAR-5 ovarian) of 3.61 µM, a TGI (OVCAR-5 ovarian) of 22.1 µM and a GI50 (SNB-75 CNS) of 0.59 µM. For the same compound, the TGI (SNB-75 CNS) was 8.53 µM, the GI50 (NCI-H522 lung) was 1.23 µM and the TGI (NCI-H522 lung) was 4.41 µM. It also gave a GI50 (UACC-62 melanoma) of 0.554 µM, a TGI (UACC-62 melanoma) of 5.24 µM and a GI50 (TK-10 renal) of 0.707 µM. The TGI (TK-10 renal) was 13.1 µM, the GI50 (RXF 393 renal) was 3.52 µM and the TGI (RXF 393 renal) was 12.6 µM. For the same compound, the GI50 (MCF7 breast) was 0.715 µM, the TGI (MCF7 breast) was 12.3 µM and the GI50 (SK-MEL-28 melanoma) was 3.9 µM. The TGI (SK-MEL-28 melanoma) was 18.7 µM, the GI50 (COLO 205 colon) was 0.632 µM and the TGI (COLO 205 colon) was 10.8 µM. The GI50 (U251 CNS) was 3.16 µM, the TGI (U251 CNS) was 15.3 µM and the GI50 (SK-MEL-5 melanoma) was 1.4 µM. The TGI (SK-MEL-5 melanoma) was 4.95 µM, the GI50 (HCT-15 colon) was 1.41 µM and the TGI (HCT-15 colon) was 11.2 µM. It also gave a GI50 (MALME-3M melanoma) of 2.08 µM, a TGI (MALME-3M melanoma) of 13.7 µM and a GI50 (K-562 leukemia) of 0.671 µM. For the same compound, the TGI (K-562 leukemia) was 6.82 µM, the GI50 (KM12 colon) was 2.72 µM and the TGI (KM12 colon) was 16.6 µM. For the same compound, the GI50 (BT-549 breast) was 1.67 µM, the TGI (BT-549 breast) was 3.65 µM and the GI50 (NCI-H460 lung) was 2.45 µM. It also gave a TGI (NCI-H460 lung) of 13.1 µM, a GI50 (SF-295 CNS) of 4.72 µM and a TGI (SF-295 CNS) of 19.4 µM. The GI50 (SK-MEL-2 melanoma) was 2.4 µM, the TGI (SK-MEL-2 melanoma) was 12.5 µM and the GI50 (CAKI-1 renal) was 0.745 µM. It also gave a TGI (CAKI-1 renal) of 15.6 µM, a GI50 (786-0 renal) of 0.939 µM and a TGI (786-0 renal) of 3.89 µM. The GI50 (OVCAR-3 ovarian) was 1.66 µM, the TGI (OVCAR-3 ovarian) was 6.66 µM and the GI50 (T-47D breast) was 2 µM. For the same compound, the TGI (T-47D breast) was 24.3 µM, the GI50 (IGROV1 ovarian) was 5.15 µM and the TGI (IGROV1 ovarian) was 18.7 µM. For the same compound, the GI50 (SK-OV-3 ovarian) was 0.893 µM, the TGI (SK-OV-3 ovarian) was 3.52 µM and the GI50 (NCI-H226 lung) was 2.44 µM. For the same compound, the TGI (NCI-H226 lung) was 17.2 µM, the GI50 (HS 578T breast) was 1.77 µM and the TGI (HS 578T breast) was 9.43 µM. It also gave a GI50 (OVCAR-8 ovarian) of 1.88 µM, a TGI (OVCAR-8 ovarian) of 13.7 µM and a GI50 (HCC-2998 colon) of 4.15 µM. The TGI (HCC-2998 colon) was 17.8 µM, the GI50 (SF-539 CNS) was 1.71 µM and the TGI (SF-539 CNS) was 8.22 µM. For the same compound, the GI50 (SW-620 colon) was 2.73 µM, the TGI (SW-620 colon) was 16.2 µM and the GI50 (ACHN renal) was 2.01 µM. It also gave a TGI (ACHN renal) of 15.7 µM, a GI50 (SNB-19 CNS) of 5.51 µM and a TGI (SNB-19 CNS) of 20.8 µM. For the same compound, the GI50 (NCI/ADR-RES ovarian) was 2.63 µM, the TGI (NCI/ADR-RES ovarian) was 14.3 µM and the GI50 (HOP-62 NSCLC) was 1.13 µM. It also gave a TGI (HOP-62 NSCLC) of 12.9 µM, a GI50 (HT29 colon) of 0.742 µM and a TGI (HT29 colon) of 5.54 µM. The GI50 (LOX IMVI melanoma) was 1.28 µM, the TGI (LOX IMVI melanoma) was 7.21 µM and the GI50 (OVCAR-4 ovarian) was 3.1 µM. It also gave a TGI (OVCAR-4 ovarian) of 21 µM, a GI50 (NCI-H23 lung) of 3.43 µM and a TGI (NCI-H23 lung) of 16.1 µM. For the same compound, the GI50 (MDA-MB-435) was 1.6 µM, the TGI (MDA-MB-435) was 14.3 µM and the GI50 (A549 NSCLC) was 1.46 µM. For the same compound, the TGI (A549 NSCLC) was 12.9 µM, the GI50 (MDA-MB-468 breast) was 1.07 µM and the TGI (MDA-MB-468 breast) was 3.73 µM. For the same compound, the GI50 (MOLT-4 leukemia) was 1.85 µM, the TGI (MOLT-4 leukemia) was 6.74 µM and the GI50 (HL-60(TB) leukemia) was 0.134 µM. For the same compound, the TGI (HL-60(TB) leukemia) was 1.18 µM, the GI50 (HCT-116 colon) was 1.41 µM and the TGI (HCT-116 colon) was 10.1 µM. The GI50 (A498 renal) was 1.45 µM, the TGI (A498 renal) was 7.52 µM and the GI50 (PC-3 prostate) was 2.07 µM. It also gave a TGI (PC-3 prostate) of 17.2 µM, a GI50 (UACC-257 melanoma) of 1.48 µM and a TGI (UACC-257 melanoma) of 15.8 µM. For the same compound, the GI50 (SF-268 CNS) was 4.56 µM, the TGI (SF-268 CNS) was 20.1 µM and the GI50 (RPMI-8226 leukemia) was 0.378 µM. It also gave a TGI (RPMI-8226 leukemia) of 2.78 µM.
